This note sets out measurements from US20090036450A1, “PYRAZOLE COMPOUNDS AND USE THEREOF” (JAPAN TOBACCO, INC., priority 2006, published 2009).

This assay has as its target T1, human liver glycogen phosphorylase (Homo sapiens, UniProt P06737).
T1 construct: made in house; host or cells: Sf9 insect cells (suspension of disrupted cells, diluted in BES buffer, not purified)
T1 sequence (P06737 1-847): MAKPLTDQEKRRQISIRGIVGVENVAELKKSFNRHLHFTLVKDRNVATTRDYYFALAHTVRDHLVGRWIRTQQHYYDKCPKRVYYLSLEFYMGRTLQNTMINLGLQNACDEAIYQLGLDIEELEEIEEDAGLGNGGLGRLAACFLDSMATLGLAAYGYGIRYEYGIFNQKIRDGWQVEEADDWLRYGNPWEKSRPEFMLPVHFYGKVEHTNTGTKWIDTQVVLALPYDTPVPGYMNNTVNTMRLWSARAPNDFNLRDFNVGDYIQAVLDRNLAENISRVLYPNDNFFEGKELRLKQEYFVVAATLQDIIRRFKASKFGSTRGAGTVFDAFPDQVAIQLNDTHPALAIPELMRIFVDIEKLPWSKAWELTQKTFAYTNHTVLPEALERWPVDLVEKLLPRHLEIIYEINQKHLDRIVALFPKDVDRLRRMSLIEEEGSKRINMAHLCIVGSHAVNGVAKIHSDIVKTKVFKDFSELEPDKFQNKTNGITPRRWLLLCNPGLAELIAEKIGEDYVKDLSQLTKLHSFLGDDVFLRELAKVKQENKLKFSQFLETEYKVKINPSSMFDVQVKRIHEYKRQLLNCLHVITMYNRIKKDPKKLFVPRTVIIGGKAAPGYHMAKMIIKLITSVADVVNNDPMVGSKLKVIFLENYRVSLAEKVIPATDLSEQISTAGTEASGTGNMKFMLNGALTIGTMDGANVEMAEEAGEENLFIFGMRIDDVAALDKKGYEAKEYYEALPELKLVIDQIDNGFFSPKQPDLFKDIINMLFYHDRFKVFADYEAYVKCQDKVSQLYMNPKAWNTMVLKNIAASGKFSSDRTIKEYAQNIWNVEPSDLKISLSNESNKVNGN
The experiment in a line: Liver glycogen phosphorylase activity, forward reaction system (NADPH detection at 340 nm). It is filed as biochemical. The following applies: enzyme inhibitory activity against recombinant human liver glycogen phosphorylase (Sf9 cell lysate), room temperature, 75 minutes. Here is the method: The glycogen phosphorylase activity was determined by a method using a forward reaction system.
The following method was used to determine the glycogen phosphorylase activity using a forward reaction system. Glucose-1-phosphate generated from glycogen by glycogen phosphorylase was converted to glucono-δ-lactone-6-phosphate by transphosphorylation and dehydrogenation reactions using phosphoglucomutase and glucose-6-phosphate dehydrogenase (G6PDH). At this time, NADPH generated from NADP in the dehydrogenation reaction by G6PDH was detected.
An enzyme solution of human liver glycogen phosphorylase was obtained by diluting with 100 mmol/L BES buffer (pH 6.8, containing 2 mmol/L EDTA) a suspension disrupted Sf9 cells in which a recombinant human liver glycogen phosphorylase was forcibly expressed. Phosphate buffer (16 mmol/L KH2PO4, containing 24 mmol/L Na2HPO4) was used as a substrate solution. A mixture of 8 U/mL phosphoglucomutase and 60 U/mL G6PDH was prepared with BES buffer. A reaction buffer (1.4 mmol/L NADP, 30 mmol/L MgCl2, 8 μmol/L glucose-1,6-diphosphate, 8 mg/mL glycogen, 40 mmol/L BES, containing 0.8 mmol/L EDTA) and a glucose solution (75 mmol/L glucose and 100 mmol/L BES, containing 2 mmol/L EDTA) were prepared. A test substance was dissolved in 1% DMSO aqueous solution.
To a mixture of the glucose solution (20 μL), the substrate solution (20 μL), the reaction buffer (100 μL), and the test substance (20 μL), the recombinant human liver glycogen phosphorylase solution (20 μL), and a mixture (20 μL) of phosphoglucomutase and G6PDH were added to initiate an enzymatic reaction. To a control, 1% DMSO aqueous solution was added instead of the test substance. A solution to which the substrate was not added was used as a blank. After initiation of the reaction, absorbance at 340 nm was measured immediately. The reaction was performed at room temperature for 75 minutes, and then absorbance at 340 nm was measured again. The enzyme activity was obtained by deducting the change in absorbance of the blank for 75 minutes from the change in absorbance over 75 minutes. The inhibition rate (%) of the test substance was calculated by “(1−(enzyme activity of test substance)/(enzyme activity of control))×100”.
“IC50” represents an enzyme inhibitory activity against human liver glycogen phosphorylase.

Turning to `Cc1ccc(-c2nc(C)oc2CNC(=O)c2cc(NC(=O)c3cc(F)c(F)cc3Cl)[nH]n2)cc1` [Example 1-29, 5-(2-chloro-4,5-difluoro-benzoylamino)-1H-pyrazole-3-carboxylic acid [4-(4-methyl-phenyl)-2-methyl-oxazol-5-ylmethyl]-amide], the IC50 – broadly, the concentration at which inhibition is half-maximal – is less than 100 nM. Take `Cc1nc(CNC(=O)c2cc(NC(=O)c3cc(F)c(F)cc3Cl)[nH]n2)oc1C(=O)O` [Example 3-18, 5-(2-chloro-4,5-difluoro-benzoylamino)-1H-pyrazole-3-carboxylic acid (5-carboxy-4-methyl-oxazol-2-ylmethyl)-amide]: the IC50 was less than 100 nM.

Regarding `Cc1nc(CNC(=O)c2ccc(Cl)cc2)oc1CNC(=O)c1cc(NC(=O)c2cc(F)c(F)cc2Cl)[nH]n1` [Example 3-13, 5-(2-chloro-4,5-difluoro-benzoylamino)-1H-pyrazole-3-carboxylic acid {2-[(4-chloro-benzoylamino)-methyl]-4-methyl-oxazol-5-ylmethyl}-amide], the IC50 is less than 100 nM.

On to `O=C(NCc1nnc(-c2cccc([N+](=O)[O-])c2)o1)c1cc(NC(=O)c2cc(F)c(F)cc2Cl)[nH]n1` [Example 1-56, 5-(2-chloro-4,5-difluoro-benzoylamino)-1H-pyrazole-3-carboxylic acid [5-(3-nitro-phenyl)-[1,3,4]oxadiazol-2-ylmethyl]-amide], for which the IC50 is less than 100 nM.

Regarding `Cc1nc(-c2ccc(-c3ccccc3)cc2)c(CNC(=O)c2cc(NC(=O)c3cc(F)c(F)cc3Cl)[nH]n2)o1` [Example 1-32, 5-(2-chloro-4,5-difluoro-benzoylamino)-1H-pyrazole-3-carboxylic acid (4-biphenyl-4-yl-2-methyl-oxazol-5-ylmethyl)-amide], the IC50 was less than 100 nM. Take `Cc1cccc(-c2nc(C)oc2CNC(=O)c2cc(NC(=O)c3cc(F)c(F)cc3Cl)[nH]n2)c1` [Example 1-30, 5-(2-chloro-4,5-difluoro-benzoylamino)-1H-pyrazole-3-carboxylic acid [4-(3-methyl-phenyl)-2-methyl-oxazol-5-ylmethyl]-amide]: the IC50 was less than 100 nM. With `COc1ccccc1-c1nnc(CNC(=O)c2cc(NC(=O)c3cc(F)c(F)cc3Cl)[nH]n2)o1` [Example 1-61, 5-(2-chloro-4,5-difluoro-benzoylamino)-1H-pyrazole-3-carboxylic acid [5-(2-methoxy-phenyl)-[1,3,4]oxadiazol-2-ylmethyl]-amide], the IC50 is less than 100 nM. For `Cc1noc(-c2ccnc(Cl)c2)c1CNC(=O)c1cc(NC(=O)c2cc(F)c(F)cc2Cl)[nH]n1` [Example 1-20, 5-(2-chloro-4,5-difluoro-benzoylamino)-1H-pyrazole-3-carboxylic acid [5-(2-chloro-pyridin-4-yl)-3-methylisoxazol-4-ylmethyl]-amide], the IC50 is less than 100 nM.

Turning to `Cc1cc(-c2nnc(CNC(=O)c3cc(NC(=O)c4cc(F)c(F)cc4Cl)[nH]n3)o2)[nH]n1` [Example 1-76, 5-(2-chloro-4,5-difluoro-benzoylamino)-1H-pyrazole-3-carboxylic acid [5-(5-methyl-2H-pyrazol-3-yl)-[1,3,4]oxadiazol-2-ylmethyl]-amide], the IC50 was less than 100 nM. Next, `Cc1c(CNC(=O)c2cc(NC(=O)c3cc(F)c(F)cc3Cl)[nH]n2)nnn1Cc1ccc(Cl)cc1` [Example 1-63, 5-(2-chloro-4,5-difluoro-benzoylamino)-1H-pyrazole-3-carboxylic acid [1-(4-chloro-benzyl)-5-methyl-1H-[1,2,3]triazol-4-ylmethyl]-amide]: less than 100 nM. Next, `CCOC(=O)c1nc(C)oc1CNC(=O)c1cc(NC(=O)c2cc(F)c(F)cc2C)[nH]n1` [Example 2-1, 5-(4,5-difluoro-2-methyl-benzoylamino)-1H-pyrazole-3-carboxylic acid (4-ethoxycarbonyl-2-methyl-oxazol-5-ylmethyl)-amide]: less than 100 nM; `Cc1nc(-c2ccc(CNC(=O)c3cc(NC(=O)c4cc(F)c(F)cc4Cl)[nH]n3)s2)cs1` [Example 1-4, 5-(2-chloro-4,5-difluoro-benzoylamino)-1H-pyrazole-3-carboxylic acid [5-(2-methyl-thiazol-4-yl)-thiophen-2-ylmethyl]-amide]: less than 100 nM. For `O=C(NCc1csc(-c2ccc(Cl)cc2)n1)c1cc(NC(=O)c2cc(F)c(F)cc2Cl)[nH]n1` [Example 1-5, 5-(2-chloro-4,5-difluoro-benzoylamino)-1H-pyrazole-3-carboxylic acid [2-(4-chloro-phenyl)-thiazol-4-ylmethyl]-amide], the IC50 was less than 100 nM. With `Cc1nc(C(=O)NCc2ccccc2)oc1CNC(=O)c1cc(NC(=O)c2cc(F)c(F)cc2Cl)[nH]n1` [Example 3-16, 5-(2-chloro-4,5-difluoro-benzoylamino)-1H-pyrazole-3-carboxylic acid (2-benzylcarbamoyl-4-methyl-oxazol-5-ylmethyl)-amide], the IC50 is less than 100 nM. On to `Cc1nc(COCC(=O)N2CCOCC2)oc1CNC(=O)c1cc(NC(=O)c2cc(F)c(F)cc2Cl)[nH]n1` [Example 3-10, 5-(2-chloro-4,5-difluoro-benzoylamino)-1H-pyrazole-3-carboxylic acid [4-methyl-2-(2-morpholin-4-yl-2-oxo-ethoxymethyl)-oxazol-5-ylmethyl]-amide], for which the IC50 was less than 100 nM.

For `Cc1nc(CCc2ccccc2)c(CNC(=O)c2cc(NC(=O)c3cc(F)c(F)cc3Cl)[nH]n2)o1` [Example 1-33, 5-(2-chloro-4,5-difluoro-benzoylamino)-1H-pyrazole-3-carboxylic acid (2-methyl-4-phenethyl-oxazol-5-ylmethyl)-amide], the IC50 was less than 100 nM. Turning to `O=C(NCc1nnc(-c2cccc(F)c2)o1)c1cc(NC(=O)c2cc(F)c(F)cc2Cl)[nH]n1` [Example 1-72, 5-(2-chloro-4,5-difluoro-benzoylamino)-1H-pyrazole-3-carboxylic acid [5-(3-fluoro-phenyl)-[1,3,4]oxadiazol-2-ylmethyl]-amide], the IC50 is less than 100 nM.

`Cc1nc(C2CC2)ncc1CNC(=O)c1cc(NC(=O)c2cc(F)c(F)cc2Cl)[nH]n1` [Example 1-80, 5-(2-chloro-4,5-difluoro-benzoylamino)-1H-pyrazole-3-carboxylic acid (2-cyclopropyl-4-methyl-pyrimidin-5-ylmethyl)-amide]: the IC50 was less than 100 nM. Take `Cc1ccc(Cn2nnc(CNC(=O)c3cc(NC(=O)c4cc(F)c(F)cc4Cl)[nH]n3)c2C)cc1` [Example 1-64, 5-(2-chloro-4,5-difluoro-benzoylamino)-1H-pyrazole-3-carboxylic acid [5-methyl-1-(4-methyl-benzyl)-1H-[1,2,3]triazol-4-ylmethyl]-amide]: the IC50 is less than 100 nM.

Regarding `Cc1ccccc1-c1nnc(CNC(=O)c2cc(NC(=O)c3cc(F)c(F)cc3Cl)[nH]n2)o1` [Example 1-53, 5-(2-chloro-4,5-difluoro-benzoylamino)-1H-pyrazole-3-carboxylic acid [5-(2-methyl-phenyl)-[1,3,4]oxadiazol-2-ylmethyl]-amide], the IC50 was less than 100 nM. Take `Cc1nc(-c2ccccc2F)c(CNC(=O)c2cc(NC(=O)c3cc(F)c(F)cc3Cl)[nH]n2)o1` [Example 1-27, 5-(2-chloro-4,5-difluoro-benzoylamino)-1H-pyrazole-3-carboxylic acid [4-(2-fluoro-phenyl)-2-methyl-oxazol-5-ylmethyl]-amide]: the IC50 was less than 100 nM.
